Experimental data as given in US20200216416A1, “QUINOLINE COMPOUNDS AS INHIBITORS OF TAM AND MET KINASES” (Array BioPharma Inc., priority 2019, published 2020).

Key:
human MET kinase L1195V = biological target: T1, human MET kinase L1195V (Homo sapiens, UniProt P08581, L1195V); assay: c-Met Enzyme Assay, L1195V mutant; assay type: binding; settings: averaged IC50; L1195V 10 nM; 60-minute incubation at 22° C.
T1 construct: GST-tagged recombinant human MET kinase domain; purchased Signal Chem
Protocol: (§1) The affinity of compound binding to wild type and mutant human MET kinases was measured using Invitrogen's LanthaScreen™ Eu Kinase Binding technology. Briefly, GST-tagged recombinant human MET kinase domain from Signal Chem (see Table 8 below for concentration in assay) was incubated with 50 nM Alexa-Fluor® Tracer 236 (Invitrogen Cat No. PR9078A) and 2 nM Europium-anti-GST (Invitrogen Cat. No. A15116) along with test compound in a buffer consisting of 25 mM HEPES, pH 7.4, 10 mM MgCl2, 0.01% Triton X-100, 1mM DTT, and 2% DMSO. Compounds were typically prepared in a three-fold serial dilution in DMSO and added to the assay to give the appropriate final concentration. After a 60-minute incubation at 22° C., the reaction was measured using a PerkinElmer EnVision multimode plate reader via TR-FRET dual wavelength detection, and the percent of control (POC) calculated using a ratiometric emission factor. […] The POC values were fit to a 4 parameter logistic curve and the IC50 value is point where the curve crosses 50 POC.

human MET kinase F1200I = biological target: T2, human MET kinase F1200I (Homo sapiens, UniProt P08581, F1200I); assay: c-Met Enzyme Assay, F1200I mutant; assay type: binding; settings: averaged IC50; F1200I 2 nM; 60-minute incubation at 22° C.
T2 construct: GST-tagged recombinant human MET kinase domain; purchased Signal Chem
T2 sequence (P08581 1078-1345 F1200I limits assumed): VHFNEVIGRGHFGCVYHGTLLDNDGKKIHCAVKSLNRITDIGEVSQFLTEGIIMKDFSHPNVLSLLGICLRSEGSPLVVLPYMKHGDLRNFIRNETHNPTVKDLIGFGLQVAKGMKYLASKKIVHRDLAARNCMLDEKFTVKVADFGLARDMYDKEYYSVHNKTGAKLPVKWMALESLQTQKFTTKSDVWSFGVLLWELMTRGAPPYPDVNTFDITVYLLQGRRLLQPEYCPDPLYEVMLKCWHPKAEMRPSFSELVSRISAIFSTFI
Protocol: as §1

[1] = biological target: T3, GST-tagged recombinant human TYRO3 kinase domain (Homo sapiens, UniProt Q06418); assay: TYRO3 Enzyme Assay (LanthaScreen Eu Kinase Binding); settings: averaged IC50; TYRO3 5 nM; 60-minute incubation at 22° C.; TR-FRET
T3 construct: GST-tagged recombinant human TYRO3 kinase domain; purchased Carna PR7480A
T3 sequence (Q06418 518-790 limits assumed): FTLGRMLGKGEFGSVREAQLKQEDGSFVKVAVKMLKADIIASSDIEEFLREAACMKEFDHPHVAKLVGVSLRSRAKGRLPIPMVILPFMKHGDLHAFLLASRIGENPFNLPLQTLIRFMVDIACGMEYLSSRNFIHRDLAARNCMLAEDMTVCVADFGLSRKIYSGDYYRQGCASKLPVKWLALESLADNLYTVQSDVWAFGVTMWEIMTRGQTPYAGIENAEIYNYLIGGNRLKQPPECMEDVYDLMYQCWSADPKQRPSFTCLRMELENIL
Protocol: Compounds disclosed herein were screened for their ability to inhibit TYRO3 kinase using Invitrogen's LanthaScreenTM Eu Kinase Binding technology. GST-tagged recombinant human TYRO3 kinase domain from Carna (5 nM; Cat. No. P[…]) was incubated with 20 nM Alexa-Fluor® Tracer 236 (P[…]) and 2 nM Europium-anti-GST (Cat. No. A15116) along with test compound in a buffer consisting of 25 mM HEPES, pH 7.4, 10 mM MgCl2, 0.01% Triton X-100, and 2% DMSO. Compounds are typically prepared in a threefold serial dilution in DMSO and added to the assay to give the appropriate final concentration. After a 60-minute incubation at 22° C., the reaction was measured using a PerkinElmer EnVision multimode plate reader via TR-FRET dual wavelength detection, and the percent of control (POC) calculated using a ratiometric emission factor. […] The POC values were fit to a 4 parameter logistic curve and the IC50 value is point where the curve crosses 50 POC.

human MET kinase D1228N = biological target: T4, human MET kinase D1228N (Homo sapiens, UniProt P08581, D1228N); assay: c-Met Enzyme Assay, D1228N mutant; assay type: binding; settings: averaged IC50; D1228N 2 nM; 60-minute incubation at 22° C.; read-out: D1228 N IC50
T4 construct: GST-tagged recombinant human MET kinase domain; purchased Signal Chem
T4 sequence (P08581 1078-1345 D1228N): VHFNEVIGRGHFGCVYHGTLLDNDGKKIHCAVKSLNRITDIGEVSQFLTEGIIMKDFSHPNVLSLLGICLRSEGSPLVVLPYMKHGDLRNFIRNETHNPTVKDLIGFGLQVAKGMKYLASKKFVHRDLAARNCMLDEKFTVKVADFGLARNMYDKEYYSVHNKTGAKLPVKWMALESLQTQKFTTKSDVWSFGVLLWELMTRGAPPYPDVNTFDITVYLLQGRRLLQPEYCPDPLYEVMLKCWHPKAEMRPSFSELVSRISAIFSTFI
Protocol: as §1

T1 sequence (P08581 1078-1345 L1195V limits assumed): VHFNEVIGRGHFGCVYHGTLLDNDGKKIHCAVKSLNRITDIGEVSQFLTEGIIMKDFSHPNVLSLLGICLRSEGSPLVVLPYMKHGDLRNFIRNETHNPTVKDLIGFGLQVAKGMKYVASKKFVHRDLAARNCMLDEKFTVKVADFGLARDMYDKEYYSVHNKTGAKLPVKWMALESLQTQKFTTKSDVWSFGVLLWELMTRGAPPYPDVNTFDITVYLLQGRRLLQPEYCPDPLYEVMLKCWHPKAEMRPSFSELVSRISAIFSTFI

SMILES	IC50 (human MET kinase L1195V)	IC50 (human MET kinase F1200I)	IC50 [1]	IC50 (human MET kinase D1228N)
CCOc1ccc2c(Oc3ccc(NC(=O)c4cn(C(C)C)cc(-c5ccc(F)cc5)c4=O)nc3)ccnc2c1 [Example 52, N-(5-((7-ethoxyquinolin-4-yl)oxy)pyridin-2-yl)-5-(4-fluorophenyl)-1-isopropyl-4-oxo-1,4-dihydropyridine-3-carboxamide]	73.6 nM	20.1 nM	18 nM	26.3 nM
COc1cc2nccc(Oc3ccc(NC(=O)c4cn(CC5CCOCC5)cc(-c5ccc(F)cc5)c4=O)nc3)c2cc1OC [Example 8, N-(5-((6,7-dimethoxyquinolin-4-yl)oxy)pyridin-2-yl)-5-(4-fluorophenyl)-4-oxo-1-((tetrahydro-2H-pyran-4-yl)methyl)-1,4-dihydropyridine-3-carboxamide]	29.1 nM	4.9 nM	15 nM	10.7 nM
COc1cc2nccc(Oc3ccc(NC(=O)c4cn(CCN(C)C)cc(-c5ccc(F)cc5F)c4=O)nc3)c2cc1OC [Example 44, 5-(2,4-difluorophenyl)-N-(5-((6,7-dimethoxyquinolin-4-yl)oxy)pyridin-2-yl)-1-(2-(dimethylamino)ethyl)-4-oxo-1,4-dihydropyridine-3-carboxamide]	18.9 nM	4.2 nM	4 nM	3.2 nM
COc1cc2nccc(Oc3ccc(NC(=O)c4cn(C5CCOCC5)cc(-c5ccc(F)cc5)c4=O)nc3)c2cc1OC [Example 12, N-(5((6,7-dimethoxyquinolin-4-yl)oxy)pyridin-2-yl)-5-(4-fluorophenyl)-4-oxo-1-(tetrahydro-2H-pyran-4-yl)-1,4-dihydropyridine-3-carboxamide]	33 nM	7 nM	23 nM	9.7 nM
COc1cc2nccc(Oc3ccc(NC(=O)c4cn(CCC(C)C)cc(-c5ccc(F)c(F)c5)c4=O)nc3)c2cc1OC [Example 35, 5-(3,4-difluorophenyl)-N-(5-((6,7-dimethoxyquinolin-4yl)oxy)pyridin-2-yl)-1-isopentyl-4-oxo-1,4-dihydropyridine-3-carboxamide]	34.3 nM	11.5 nM	30 nM	16.2 nM
COc1cc2nccc(Oc3ccc(NC(=O)c4cn(C)c(C(C)C)c(-c5ccc(F)cc5)c4=O)nc3)c2cc1OC [Example 45, N-(5-((6,7-dimethoxyquinolin-4-yl)oxy)pyridin-2-yl)-5-(4-fluorophenyl)-6-isopropyl-1-methyl-4-oxo-1,4-dihydropyridine-3-carboxamide]	41.4 nM	8.3 nM	91 nM	13.4 nM
COc1cc2ncc(C#N)c(Oc3ccc(NC(=O)c4cn(C(C)C)cc(-c5ccc(F)cc5)c4=O)nc3)c2cc1OC [Example 57, N-(5-((3-cyano-6,7-dimethoxyquinolin-4-yl)oxy)pyridin-2-yl)-5-(4-fluorophenyl)-1-isopropyl-4-oxo-1,4-dihydropyridine-3-carboxamide]		346 nM	255 nM	1060 nM
COc1cc2nc(C)cc(Oc3ccc(NC(=O)c4cn(C(C)C)cc(-c5ccc(F)cc5)c4=O)nc3)c2cc1OC [Example 53, N-(5-((6,7-dimethoxy-2-methylquinolin-4-yl)oxy)pyridin-2-yl)-5-(4-fluorophenyl)-1-isopropyl-4-oxo-1,4-dihydropyridine-3-carboxamide]		3690 nM	> 1000 nM	
COc1cc2nccc(Oc3ccc(NC(=O)c4cn(C(C)C)c(C(C)C)c(-c5ccc(F)cc5)c4=O)nc3)c2cc1OC [Example 38, N-(5-((6,7-dimethoxyquinolin-4yl)oxy)pyridin-2-yl)-5-(4-fluorophenyl)-1,6-diisopropyl-4-oxo-1,4-dihydropyridine-3-carboxamide]			18 nM	
COc1cc2nccc(Oc3ccc(NC(=O)c4c[nH]cc(-c5ccc(F)cc5)c4=O)nc3)c2cc1OC [Example 26, N-(5-((6,7-dimethoxyquinolin-4yl)oxy)pyridin-2-yl)-5-(4-fluorophenyl)-4-oxo-1,4-dihydropyridine-3-carboxamide]		6.4 nM	15 nM	19.2 nM
